Assays:
HeLa = test: Antiproliferative activity against human HeLa cells assessed as growth inhibition after 72 hrs by MTT assay; assay type: functional
Daoy = test: Antiproliferative activity against human DaOY cells assessed as growth inhibition after 72 hrs by MTT assay; assay type: functional
MDA-MB-231 = test: Antiproliferative activity against human MDA-MB-231 cells assessed as growth inhibition after 72 hrs by MTT assay; assay type: functional; conditions: MDA-MB-231, 72 h
[1] = Antioxidant activity against linoleic acid assessed as inhibition of beta-carotene bleaching at 0.18 umol/ml measured at 15 mins interval for 1 hr; assay type: functional
[2] = Metal chelating activity assessed as compound-Fe2+ complex formation by measuring chelated ferrous ion at 0.18 umol/ml preincubated with Mohr's salt followed by ferozine addition and measured after 10 mins
[3] = Antioxidant activity assessed as DPPH radical scavenging activity at 0.18 umol/ml incubated for 30 mins under dark condition relative to control; assay type: functional

| SMILES | GI50 (HeLa) | GI50 (Daoy) | GI50 (MDA-MB-231) | inhibition [1] | Activity [2] | inhibition [3] |
| --- | --- | --- | --- | --- | --- | --- |
| COc1cccc2c1C(=O)c1c(O)c3c(c(O)c1C2=O)C[C@@](O)(C(=O)CO)C[C@@H]3O[C@H]1C[C@H](N)[C@H](O)[C@H](C)O1 [DOXORUBICIN] | 93 nM | 16 nM | 46 nM | – | – | – |
| C=C(CC[C@@H](C)[C@H]1CC[C@@]2(C)[C@@H]3CC[C@H]4C(C)(C)[C@@H](OC(=O)[C@H](CSSC[C@H](NC(=O)OC(C)(C)C)C(=O)O[C@H]5CC[C@]67C[C@@]68CC[C@]6(C)[C@@H]([C@H](C)CCC(=C)C(C)C)CC[C@@]6(C)[C@@H]8CC[C@H]7C5(C)C)NC(=O)OC(C)(C)C)CC[C@@]45C[C@]35CC[C@]12C)C(C)C | > 10000 nM | > 10000 nM | > 10000 nM | 5% | 0% | 0% |
| O=c1c(O)c(-c2ccc(O)c(O)c2)oc2cc(O)cc(O)c12 | – | – | – | – | 22% | – |

Source: ChEMBL document CHEMBL4411268, “Phytosterol and γ-Oryzanol Conjugates: Synthesis and Evaluation of their Antioxidant, Antiproliferative, and Anticholesterol Activities” (2018)
